Data as given in US20050260630A1, “Rapid methods for detecting methylation of a nucleic acid molecule” (Michigan State University, priority 2004, published 2005).

How the values were obtained:
H4IIE rat hepatoma cells = experiment: Global DNA methylation by SssI methylase assay in treated H4IIE cells; conditions: 72 hour incubation
[1] = tested on: GC-rich regions of liver genomic DNA; experiment: GC-rich region methylation following phenobarbital treatment of B6C3F1 mice (AP-PCR and capillary electrophoresis, RsaI/HpaII and RsaI/MspI digests); format: in vivo; conditions: B6C3F1 mouse liver
[2] = tested on: genomic DNA from liver cells (GC-rich regions, 5′CCGG 3′ sites); experiment: Arbitrarily primed PCR and capillary electrophoresis methylation analysis of liver DNA of phenobarbital-treated C57BL/6 mice (RsaI/HpaII digest); conditions: 0.05% (w/v) in drinking water for 2 weeks
[3] = Systolic blood pressure of DOCA-treated uninephrectomized rats; format: in vivo, rat; conditions: male Sprague-Dawley rats, uninephrectomy, pellet 200 mg/kg, water with 1.0% NaCl and 0.2% KCl; at 28 days (control 112 mmHg)
Procedure: Hypertensive rats were created by subjecting male Sprague-Dawley rats, weighing […] uninephrectomy and implanting them with a deoxycorticosterone acetate (DOCA) pellet (200 mg/kg). […] Aortas were removed 28 days after implantation of the DOCA pellet.

[4] = H4IIE cells treated with cytolethal concentrations
[5] = H4IIE cells treated with non-cytolethal concentrations
[6] = HpaII digest, 0.05% (w/v) in drinking water, 2 weeks
[7] = MspI digest, 0.05% (w/v) in drinking water, 2 weeks
[8] = Total of HpaII and MspI digests, 0.05%

## O=c1[nH]cc(F)c(=O)[nH]1 [5-FU, 5-fluorouracil]
H4IIE rat hepatoma cells; [4]
  global DNA methylation status: decrease in global DNA methylation status

## CN[C@@H]1C[C@H]2O[C@@](C)([C@@H]1OC)n1c3ccccc3c3c4c(c5c6ccccc6n2c5c31)C(=O)NC4 [staurosporine, Staurosporine]
H4IIE rat hepatoma cells; [4]
  global DNA methylation status: decrease in global DNA methylation status
H4IIE rat hepatoma cells; [5]
  global DNA methylation status: decrease in global DNA methylation status

## CCC1(c2ccccc2)C(=O)NC(=O)NC1=O [phenobarbital]
[1]; [6]
  Sites of Hypermethylation: 10 sites
  Sites of Hypomethylation: 5 sites
  Sites of “New” Methylation: 11 sites
  TOTAL altered sites: 26 sites
[1]; [7]
  Sites of Hypermethylation: 8 sites
  Sites of Hypomethylation: 8 sites
  Sites of “New” Methylation: 11 sites
  TOTAL altered sites: 27 sites
[1]; [8]
  Sites of Hypermethylation: 18 sites
  Sites of Hypomethylation: 13 sites
  Sites of “New” Methylation: 22 sites
  TOTAL altered sites: 53 sites
[2]; C57BL/6 mice
  sites in murine liver DNA where treatment has affected methylation status: 10 sites
[2]; liver DNA of male C57BL/6 mice, t-test α=0.05
  Sites of Hypermethylation: 8 sites

## CC(=O)OCC(=O)[C@H]1CC[C@H]2[C@@H]3CCC4=CC(=O)CC[C@]4(C)[C@H]3CC[C@]12C [DOCA, deoxycorticosterone acetate]
[3]
  systolic blood pressure: 180 mmHg

## Nc1ncn([C@H]2C[C@H](O)[C@@H](CO)O2)c(=O)n1 [dAzaC, 5-aza-2′deoxycytidine]
H4IIE rat hepatoma cells; [5]
  global DNA methylation status: decrease in global DNA methylation status
